Data from US20110172098A1, “Imidazole and Triazole Compounds, Their Use and Agents Containing the Same” (priority 2008, published 2011).

What was measured:
Botrytis cinerea = assay: Activity against the gray mold pathogen Botrytis cinerea in the microtiter test (M1 / C1); format: cell-based; details: comparison with the prior art, day 7
Protocol: (§1) Leaves of soybean seedlings grown in pots were inoculated with a spore suspension of soybean rust (Phakopsora pachyrhizi). The pots were then placed in a chamber of high atmospheric humidity (90 to 95%) and 23 to 27° C. for 24 hours. During this time, the spores germinated and the germ tubes penetrated into the leaf tissue. The infected plants were then cultivated further in a greenhouse at temperatures between 23 and 27° C. and 60 to 80% relative atmospheric humidity. After two days, the plants were sprayed to runoff point with the active compound solution described above at the active compound concentration indicated below. After the spray coating had dried on, the test plants were cultivated in a greenhouse at temperatures between 23 and 27° C. and 60 to 80% relative atmospheric humidity for a further 10 days. The extent of the rust fungus development on the leaves was then determined visually in % of infection. […] B) Micro test The active compounds were formulated separately as a stock solution having a concentration of 10 000 ppm in DMSO.
(§2) The stock solution was pipetted into a microtiter plate (MTP) and diluted with water to the stated active compound concentration. […] Using an absorption photometer, the MTPs were measured at 405 nm on day 7 after the inoculation. The measured parameters were compared to the growth of the active compound-free control variant and the fungus- and active compound-free blank value to determine the relative growth in % of the pathogens in the individual active compounds.
(§3) The active compounds were formulated separately as a stock solution having a concentration of 10 000 ppm in DMSO. […] Using an absorption photometer, the MTPs were measured at 405 nm on day 7 after the inoculation. The measured parameters were compared to the growth of the active compound-free control variant and the fungus- and active compound-free blank value to determine the relative growth in % of the pathogens in the individual active compounds. […] […]

Septoria tritici = assay: Activity against the Septoria leaf blotch pathogen Septoria tritici in the microtiter test (M2 / C2); format: cell-based; details: comparison with the prior art, day 7
Protocol: as §1
as §2, with “variant (100%)” for “variant”, “compounds. […]” for “compounds.”
as §3

| SMILES | Growth (%) at 31 ppm of C1 (Botrytis cinerea) [%] | Growth (%) at 31 ppm of C2 (Septoria tritici) [%] |
| --- | --- | --- |
| CC(C)(C)C(O)C(CCc1ccccc1)n1cncn1 (stereo not drawn) [reference compound] | 81 | 100 |
| Cc1ccc(CCC(C(O)C(C)(C)C)n2cncn2)cc1 (stereo not drawn) | 4 | 4 |
| Cc1ccc(C(C)CC(C(O)C(C)(C)C)n2cncn2)cc1 (stereo not drawn) | 0 | 3 |
